Measured values as given in paper PMC4754833, “Rilpivirine analogs potently inhibit drug-resistant HIV-1 mutants” (Retrovirology, 2016).

Assays:
[1] = system: HIV-1 RT mutant G190A; experiment: single round infection assay, G190A; assay type: cell-based; settings: for IC50: Human immunodeficiency virus 1; for fold-change of IC50 of the mutant relative to WT: G190A vs WT
Description: (§1) The human osteosarcoma cell line, HOS, was obtained from Dr. Richard Schwartz (Michigan State University, East Lansing, MI) and grown in Dulbecco’s modified Eagle’s medium (Invitrogen, Carlsbad, CA) supplemented with 5 % (v/v) fetal bovine serum, 5 % newborn calf serum, and penicillin (50 units/ml) plus streptomycin (50 µg/ml; Quality Biological, Gaithersburg, MD). Virion production and single-round infectivity assays were used to determine antiviral activity (IC50 values) of the compounds as previously described.
(§2) pNLNgoMIVR-ΔEnv.LUC has been described previously. The RT open reading frame was removed from pNLNgoMIVR-ΔEnv.LUC (digestion with SpeI and SalI) and inserted between the SpeI and SalI sites of pBluescript II KS+. Using that construct as the wild-type template, we prepared the following HIV-1 RT mutants using the QuikChange II XL (Stratagene, La Jolla, CA) site-directed mutagenesis protocol kit: L100I, K103N, Y181C, Y188L, H221Y, K103N/Y181C, G190A, G190S, M230L, P236L, L100I/K103N, K103N/P225H, V106A/G190A/F227L, V106A, L234I, V106A/F227L, V106A/L234I, V106A/F227L/L234I, E40K, D67E, K101E, V111A, E138K, M184I, M184V, K101E/M184I, K101E/M184V, E138K/M184I, E138K/M184V, K101P, Y181I, and K101P/V179I. The following sense oligonucleotides were used with matching cognate antisense oligonucleotides (not shown) (Integrated DNA Technologies, Coralville, IA) in the mutagenesis: L100I, 5′-[…]-3′; L100I 2-103, 5′-[…]-3′; K103N, 5′-[…]-3′; Y181C, 5′-[…]-3′; Y188L, 5′-[…]-3′; H221Y, 5′-[…]-3′; G190A, 5′-[…]-3′; G190S, 5′-[…]-3′; P225H, 5′-[…]-3′; F227, 5′-[…]-3′; M230L, 5′-[…]-3′; P236L, 5′-[…]-3′; V106A, 5′-[…]-3′; L234I, 5′-[…]-3′; E40K, 5′-[…]-3′; D67E, 5′-[…]-3′; K101E, 5′-[…]-3′; V111A, 5′-[…]-3′; E138K, 5′-[…]-3′; M184I, 5′-[…]-3′; M184V, 5′-[…]-3′; K101P, 5′-[…]-3′; Y181I, 5′-[…]-3′; K101P/V179I, 5′-[…]-3′. The double mutants K103N/Y181C, K103N/P225H, and L100I/K103N were made using the previously generated K103N mutant and the appropriate oligonucleotides to add the second mutation, Y181C, P225, and L100I respectively. The double mutants V106A/F227L and V106A/L234I were prepared using the previously generated V106A mutant and the appropriate oligonucleotides to add the second mutation, F227L and L234I, respectively. The double mutants K101E/M184I and K101E/M184V were constructed using the previously generated K101E mutant and the appropriate oligonucleotides to add the second mutation, M184I and M184V, respectively. The double mutants E138K/M184I and E138K/M184V were constructed using the previously generated E138K mutant and the appropriate oligonucleotides for the second mutation, M184I and M184V, respectively. The triple mutant V106A/F227L/L234I was made using the previously generated V106A/F227L double mutant and the appropriate oligonucleotides for the third mutation, L234I. The triple mutant V106A/G190A/F227L was constructed in a series of steps using the previously generated V106A mutant and the appropriate oligonucleotides for the second mutation, G190A, to generate the double mutant V106A/G190A, and then the triple mutant was made using double mutant V106A/G190A and oligonucleotides for the third mutation, F227L. The DNA sequence of each construct was verified by DNA sequence determination. The sequences encoding the mutant RTs were then subcloned into pNLNgoMIVR-ΔEnv.LUC (between the KpnI and SalI sites) to produce the mutant HIV-1 constructs. These DNA sequences were also checked independently by DNA sequence determination.
(§3) 10.1186/s12977-016-0244-2 The IC50 values (nM) of RPV and the RPV analogs were determined against the NNRTI resistant mutants were measured by using a single round infection assay, n = 4. The concentrations (nM) are measured by reductions in luciferase reporter activity followed by the standard deviations. […]

[2] = system: HIV-1 RT mutant G190S; experiment: single round infection assay, G190S; assay type: cell-based; settings: Human immunodeficiency virus 1
Description: as §1, §2, §3

[3] = system: HIV-1 RT mutant L100I/K103N; experiment: single round infection assay, L100I/K103N; assay type: cell-based; settings: for IC50: ± SD, n=4, limit of detection 100 nM; for fold-change of IC50 of the mutant relative to WT: L100I/K103N vs WT
Description: as §1, §2, §3

[4] = system: HIV-1 RT mutant K103N/P225H; experiment: single round infection assay, K103N/P225H; assay type: cell-based; settings: for IC50: Human immunodeficiency virus 1; for fold-change of IC50 of the mutant relative to WT: K103N/P225H vs WT
Description: as §1, §2, §3

[5] = system: HIV-1 RT mutant V106A/G190A/F227L; experiment: single round infection assay, V106A/G190A/F227L; assay type: cell-based; settings: for IC50: Human immunodeficiency virus 1; for fold-change of IC50 of the mutant relative to WT: V106A/G190A/F227L vs WT
Description: as §1, §2, §3

[6] = system: HIV-1 RT mutant V106A/F227L; experiment: single round infection assay, V106A/F227L; assay type: cell-based; settings: for fold-change of IC50 of the mutant relative to WT: V106A/F227L vs WT; for IC50: ± SD, n=4
Description: as §1, §2, §3

[7] = system: HIV-1 RT mutant E138K; experiment: single round infection assay, E138K; assay type: cell-based; settings: for fold-change of IC50 of the mutant relative to WT: E138K vs WT; for IC50: ± SD, n=4
Description: as §1, §2, §3

[8] = system: HIV-1 RT mutant K101E/M184I; experiment: single round infection assay, K101E/M184I; assay type: cell-based; settings: for IC50: ± SD, n=4; for fold-change of IC50 of the mutant relative to WT: K101E/M184I vs WT
Description: as §1, §2, §3

[9] = system: HIV-1 RT mutant E138K/M184I; experiment: single round infection assay, E138K/M184I; assay type: cell-based; settings: for fold-change of IC50 of the mutant relative to WT: E138K/M184I vs WT; for IC50: ± SD, n=4
Description: as §1, §2, §3

[10] = system: HIV-1 RT mutant Y181I; experiment: single round infection assay, Y181I; assay type: cell-based; settings: for IC50: Human immunodeficiency virus 1; for fold-change of IC50 of the mutant relative to WT: Y181I vs WT
Description: as §1, §2, §3

[11] = system: HIV-1 RT mutant K101P/V179I; experiment: single round infection assay, K101P/V179I; assay type: cell-based; settings: Human immunodeficiency virus 1
Description: as §1, §2, §3

[12] = system: WT HIV-1; settings: previous study; cited from earlier work
[13] = system: HIV-1 RT mutant L100I; design: method as in PMID 23217210; settings: previous study; cited from earlier work
[14] = system: HIV-1 RT mutant K103N; design: method as in PMID 23217210; settings: previous study; cited from earlier work
[15] = Human immunodeficiency virus 1, L100I/K103N
[16] = Human immunodeficiency virus 1, E138K
[17] = Human immunodeficiency virus 1, K101E/M184I
[18] = Human immunodeficiency virus 1, E138K/M184I
[19] = Human immunodeficiency virus 1, V106A/F227L (selected by DOR)

Compound	IC50 [1] [nM]	IC50 [2] [nM]	IC50 [3, 15] [nM]	fold-change of IC50 of the mutant relative to WT [3]	IC50 [4] [nM]	fold-change of IC50 of the mutant relative to WT [4]	IC50 [5] [nM]	fold-change of IC50 of the mutant relative to WT [5]	fold-change of IC50 of the mutant relative to WT [6]	fold-change of IC50 of the mutant relative to WT [7]	IC50 ([7]; E138K) [nM]	IC50 [7, 16] [nM]	IC50 [8, 17] [nM]	fold-change of IC50 of the mutant relative to WT [8]	fold-change of IC50 of the mutant relative to WT [9]	IC50 [10] [nM]	IC50 [11] [nM]	IC50 [12] [nM]	IC50 [13] [nM]	IC50 [14] [nM]	other results
Cc1cc(/C=C/C#N)cc(C)c1Nc1ncc(N)c(Nc2ccc(C#N)cc2)n1 [compound 9]	0.6	0.6 ± 0.07	44.1	34	4.6 ± 0.3	4	4.6 ± 0.3	4	17	4	5.6 ± 1.4	< 6	< 6	3	2	> 100	> 100	< 7	< 7	< 7	IC50 ([8]; K101E/M184I): 3.3 ± 0.85 nM; IC50 ([9]; E138K/M184I): 3 ± 0.3 nM; IC50 [9, 18]: < 6 nM
COc1ccc(Cn2cnc3c(Nc4ccc(C#N)cc4)nc(Nc4c(C)cc(/C=C/C#N)cc4C)nc32)cc1 [compound 12]	0.9 ± 0.43	0.37 ± 0.02	< 5.4	6	3 ± 0.4	4	5.9 ± 0.14	9	11	12		7.8 ± 0.64	2.7 ± 0.71	4	4	> 100	> 100	< 7	< 7	< 7	fold-change of IC50 of the mutant relative to WT [1]: < 2; IC50 ([3]; L100I/K103N): 4.3 ± 2.6 nM; IC50 [6, 19]: < 5 nM; IC50 ([6]; V106A/F227L (selected by DOR)): 7.6 ± 0.5 nM; IC50 [9, 18]: 2.4 ± 0.5 nM
Cc1cc(/C=C/C#N)cc(C)c1Nc1nc(Nc2ccc(C#N)cc2)c2nc[nH]c2n1 [compound 13]	0.3 ± 0.04	0.12		2	0.3 ± 0.09	< 2	0.5 ± 0.2	< 2	< 2	5				< 2	3	1.2	> 100	< 7	< 7	< 7	fold-change of IC50 of the mutant relative to WT [1]: < 2; fold-change of IC50 of the mutant relative to WT [10]: 5
CC(=O)c1ccc(Nc2nc(Nc3c(C)cc(/C=C/C#N)cc3C)nc3[nH]cnc23)cc1 [compound 14]	0.13 ± 0.04	0.35 ± 0.05	12.6	31	0.92 ± 0.14	2	0.9 ± 0.18	2	12	6	2.6 ± 0.6	< 2.5		< 2	3	> 100	> 100	< 7	< 7	< 7	IC50 [6, 19]: < 5 nM; IC50 ([6]; V106A/F227L (selected by DOR)): 4.9 ± 1.3 nM
COc1ccc(Nc2nc(Nc3c(C)cc(/C=C/C#N)cc3C)nc3[nH]cnc23)cc1 [compound 16]	0.37 ± 0.08	0.17 ± 0.05		11	2.7 ± 0.07	16	1.7 ± 0.2	10	4	11	1.9 ± 0.01	< 2.5		< 2	5	63.2	> 100	< 7	< 7	< 7	fold-change of IC50 of the mutant relative to WT [1]: 2; fold-change of IC50 of the mutant relative to WT [10]: 372
Cc1cc(/C=C/C#N)cc(C)c1Nc1nc(Nc2ccc(F)cc2)c2nc[nH]c2n1 [compound 17]	1.6 ± 0.3	0.74 ± 0.11	63.4	29	3.4 ± 0.2	< 2	10.8 ± 2.5	5	19	6		13.5	15	7	2	78.9	> 100	< 7	< 7	< 7	IC50 [9, 18]: 5.2 ± 1.1 nM; fold-change of IC50 of the mutant relative to WT [10]: 36
